Results taken from PMC11206029, “Identification and Characterization of Cannabichromene’s Major Metabolite Following Incubation with Human Liver Microsomes” (Metabolites, 2024).
Read-outs that look alike come from different tables or passages of the source.

Tests used:
human recombinant CB1R = human recombinant CB1R (Homo sapiens, UniProt P21554); assay: biochemical; assay type: binding
human recombinant CB2R = human recombinant CB2R (Homo sapiens, UniProt P34972); assay: Competitive radioligand binding assay, displacement of [^3H]CP 55,940; conditions: for Hill Slope: CB2R, means ± S.E.M. of four to ten experiments
Chain of human recombinant CB2R (P34972 whole entry): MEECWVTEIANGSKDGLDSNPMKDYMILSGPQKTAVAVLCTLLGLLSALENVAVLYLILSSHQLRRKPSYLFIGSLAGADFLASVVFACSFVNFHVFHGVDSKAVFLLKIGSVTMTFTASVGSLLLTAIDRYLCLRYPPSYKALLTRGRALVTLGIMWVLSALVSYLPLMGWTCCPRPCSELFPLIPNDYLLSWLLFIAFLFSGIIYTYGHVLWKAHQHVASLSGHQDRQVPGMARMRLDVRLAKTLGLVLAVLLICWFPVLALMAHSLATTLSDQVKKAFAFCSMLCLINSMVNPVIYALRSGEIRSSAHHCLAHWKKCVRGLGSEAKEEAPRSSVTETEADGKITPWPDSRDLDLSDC

microglia = tested on: microglia; set-up: method as in PMID 38477310; conditions: microglia following lipopolysaccharide challenge; cited from earlier work
[1] = set-up: method as in PMID 1806943; conditions: hamster-derived liver microsomes; cited from earlier work
[2] = set-up: method as in PMID 1806943; conditions: cat-derived liver microsomes; cited from earlier work
[3] = set-up: method as in PMID 37574147; conditions: human hepatic biotransformation; cited from earlier work
[4] = Incubation of CBC with pooled human liver microsomes, metabolite identification; assay type: in vitro ADME
Protocol: To maximize the yield of CBC metabolites, parameters including incubation time, HLM protein concentration, and CBC concentration were optimized, and representative extracted ion chromatograms are available in the Supplementary Materials (Section S1.2). The parameters resulting in the highest yield of metabolites were determined to be 0.5 mg/mL HLM, 50 µg/mL CBC, and a 40 min incubation time. Prior to adding the drug, the NADPH-generating system was incubated on a shaker set to 150 rpm at a temperature of 37 ± 2 °C for 10 min (C24 Incubator Shaker, New Brunswick Scientific, Edison, NJ, USA). […]
The HPLC components for the semi-preparative isolation of the major CBC metabolite were as follows: G1322A degasser, G1312A binary pump, G1329B 1260 ALS, G1315B DAD, G1364B fraction collector (all Agilent Technologies, Santa Clara, CA, USA), and an external column compartment ThermaSphere (Phenomenex, Torrance, CA, USA). […] UV absorbance was monitored at 210 nm and 231 nm. […] Isolated metabolites and controls were analyzed utilizing both LC-MS/MS and GC-MS/MS as described below. […]
Samples were derivatized and analyzed using GC-MS/MS based on the previous literature. […] Samples were cooled, transferred to autosampler vials and immediately analyzed via GC-MS/MS. […]

[5] = set-up: method as in PMID 1806943; conditions: gerbil-derived liver microsomes; cited from earlier work

Chain of human recombinant CB1R (P21554 whole entry): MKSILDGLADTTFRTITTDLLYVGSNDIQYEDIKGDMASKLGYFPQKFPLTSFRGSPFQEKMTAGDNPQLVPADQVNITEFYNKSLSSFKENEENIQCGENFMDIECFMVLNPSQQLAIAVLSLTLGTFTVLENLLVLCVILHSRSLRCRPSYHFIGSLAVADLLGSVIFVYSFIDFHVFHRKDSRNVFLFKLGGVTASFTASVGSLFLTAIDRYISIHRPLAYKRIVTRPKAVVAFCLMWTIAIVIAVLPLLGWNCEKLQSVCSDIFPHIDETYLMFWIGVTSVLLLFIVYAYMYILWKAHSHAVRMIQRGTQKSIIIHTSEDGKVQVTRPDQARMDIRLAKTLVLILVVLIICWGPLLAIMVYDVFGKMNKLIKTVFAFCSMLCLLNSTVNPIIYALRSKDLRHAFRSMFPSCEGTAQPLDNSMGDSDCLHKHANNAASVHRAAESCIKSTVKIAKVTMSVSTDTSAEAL

SMILES	Ki (human recombinant CB1R) [µM]	Ki (human recombinant CB2R) [µM]	Inflammatory phenotype by nitric oxide production (microglia)	Hill Slope (human recombinant CB2R)	other results
CCCCCc1cc2c3c(c1)OC1(C)CCC(C3C1O)C(C)(C)O2 (stereo not drawn) [2′-hydroxycannabicitran]	> 10	> 10			
CCCCCc1cc(O)c2c(c1)OC(C)(CCC(O)C(C)(C)O)C=C2 (stereo not drawn) [6′, 7′-dihydroxy-CBC]			reduction in nitric oxide production		
CCCCCc1cc(O)c2c(c1)OC(C)(CC/C=C(\C)CO)C=C2 (stereo not drawn) [8′-hydroxy-CBC]			pro-inflammatory		
CCCCCc1cc(O)c2c(c1)OC(C)(CCC=C(C)C)C=C2 (stereo not drawn) [CBC, Cannabichromene]	3.5 ± 1.2	0.301 ± 0.072		−1.32 ± 0.36	Epoxidation across the alkene on the branched aliphatic chain, share of the total amount of metabolites generated [1]: 10%; Hill Slope (human recombinant CB1R; CB1R, means ± S.E.M. of four to ten experiments): −0.27 ± 0.51; Epoxidation across the alkene on the branched aliphatic chain, share of the total amount of metabolites generated [2]: 42%; Hydroxylation, share of all CBC metabolites produced [3]: 31%; Monoglucuronides, share of all CBC metabolites produced [3]: ~50%; Major metabolite generated by HLMs ([4]; 0.5 mg/mL HLM, 50 µg/mL CBC, 40 min incubation, NADPH-generating system): 2′-hydroxycannabicitran; Formation of carboxylic acid metabolites ([4]; incubation with HLM, optimized conditions): did not observe any carboxylic acid metabolites; Epoxidation across the alkene on the branched aliphatic chain, share of the total amount of metabolites generated [5]: 12%
CCCCCc1cc2c3c(c1)OC(C)(C)C1CCC(C)(CC31)O2 (stereo not drawn) [CBT-C, cannabicitran, reference compound]	> 10	4.2 ± 0.41		−1.15 ± 0.14	
